Test results published in patent US12122760B2, “Compound, composition, and use thereof in preparation of drug” (CHANGSHA ZEDA MEDICAL TECH. CO., LTD, priority 2019, dated 2024).

Tests used:
[1] = system: AR-negative cells (293T and DU145); test: Selective effects of the drug to cells (MTS), AR-negative cells; assay type: cell-based, human; details: 293T and DU145, 4 days treatment, FIG. 10
Description: (§1) 293T cells are AR-negative human embryonic kidney cells, DU145 cells are AR-negative prostate cancer cells, and VCaP cells are AR-positive prostate cancer cells. These three types of the cells are cultured in the 96-well plates and treated with the drugs (in the concentration gradient) respectively for 4 days. Then the inhibition of the drugs on cell proliferation are measure by MTS. Detailed process is as follows:
(§2) The VCaP cells are cultured with 5% CSS and 1640 medium without phenol red, and inoculated in the 96-well plates, and 1×10^4 cells are added to each well. The 293T cells and the DU145 cells are cultured with 10% FBS and 1640 medium, and inoculated in the 96-well plates, and 2×10^3 cells are added to each well. The cells are incubated overnight to make the cells stick to a wall. Then the different concentrations of the drugs are added on the second day. After treatment with the drugs for 4 days, cell viability is measured by the MTS kit (Promega, USA). To each well, 10% of an MTS reagent is added, and incubation continued for 2 hours. The absorbance value at […] is then measured by the multi-functional microplate reader. The Graphpad Prism software is used to draw a curve by using the drug concentration as an abscissa and using the absorbance value of the drug treatment/the absorbance value of the blank treatment cell as an ordinate.

AR-positive VCaP cells = test: Selective effects of the drug to cells (MTS; VCaP versus 293T and DU145); assay type: cell-based; details: 4 days treatment, FIG. 10
Description: as §1, §2

androgen receptor (AR) = target: T1, androgen receptor (AR) (Homo sapiens, UniProt P10275); test: Luciferase reporter gene experiment (MMTV-LUC + pSV-AR in 293T cells); assay type: cell-based; details: 10 nM DHT, FIG. 2
T1 construct: expressed in transfected cells; host or cells: 293T cells
T1 sequence (P10275 1-920): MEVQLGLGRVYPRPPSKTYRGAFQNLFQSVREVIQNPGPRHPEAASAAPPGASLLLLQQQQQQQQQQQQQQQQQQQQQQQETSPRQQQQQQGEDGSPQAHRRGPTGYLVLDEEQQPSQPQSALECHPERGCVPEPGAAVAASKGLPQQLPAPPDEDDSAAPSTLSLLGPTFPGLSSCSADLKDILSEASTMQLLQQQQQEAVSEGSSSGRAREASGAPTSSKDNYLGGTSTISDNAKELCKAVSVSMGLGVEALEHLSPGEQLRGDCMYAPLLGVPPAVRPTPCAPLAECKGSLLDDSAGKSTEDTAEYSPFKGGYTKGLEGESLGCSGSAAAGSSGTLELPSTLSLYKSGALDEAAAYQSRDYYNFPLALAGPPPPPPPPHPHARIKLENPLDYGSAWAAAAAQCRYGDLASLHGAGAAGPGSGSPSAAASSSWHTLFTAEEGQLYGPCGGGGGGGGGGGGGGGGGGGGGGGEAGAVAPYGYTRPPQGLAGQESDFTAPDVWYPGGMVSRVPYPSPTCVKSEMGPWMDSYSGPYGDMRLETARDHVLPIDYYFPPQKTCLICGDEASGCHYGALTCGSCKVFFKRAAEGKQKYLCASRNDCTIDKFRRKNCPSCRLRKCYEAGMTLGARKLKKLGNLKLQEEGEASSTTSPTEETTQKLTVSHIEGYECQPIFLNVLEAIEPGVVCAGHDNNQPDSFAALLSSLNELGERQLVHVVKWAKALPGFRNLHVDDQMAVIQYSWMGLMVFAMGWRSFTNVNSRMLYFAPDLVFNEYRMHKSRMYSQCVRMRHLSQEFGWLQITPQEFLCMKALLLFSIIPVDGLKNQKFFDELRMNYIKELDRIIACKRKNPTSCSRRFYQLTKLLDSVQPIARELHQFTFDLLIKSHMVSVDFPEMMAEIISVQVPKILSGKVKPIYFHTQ
Description: 293T cells are cultured in a 96-well plate. AR plasmids and luciferase genes with AR target promoters are co-transfected in the 293T cells. AR activates the target promoters to express luciferase, and the expression level of the luciferase is directly proportional to AR activation. Adding DHT to the cells can activate AR and express the luciferase, thus enhancing fluorescence signal detection. By detecting the fluorescent signal, it can be examined whether an added drug has AR antagonist activity.
The luciferase reporter gene plasmid MMTV-LUC containing the androgen receptor (AR) target promoters and the plasmid pSV-AR expressing the androgen receptor (AR) are constructed. The 293T cells are inoculated in a 96-well plate, wherein each well containing 1×10^4 cells. The cells are incubated overnight to stick to the wall. On the second day, Lipofectamine® 3000 (Life technologies, USA) is used to transfect the plasmid into the cells. Each well is added with 180 ng of MMTV-LUC plasmid and 20 ng of pSV-AR plasmid. On the third day, each well is added with 10 nM of the DHT and the drugs of different concentrations of 1 nM, 10 nM, 100 nM, 1 uM, 10 uM, 25 uM, 50 uM respectively. The control is 10 nM of the DHT. On the fifth day, a luciferase reporter gene detection kit (Biyuntian company, China) is used to process the cells. 100 uL of cell lysate is added to the 96-well plate, and lyse for 20 min. Then centrifuging is performed at 4 degrees and 10000 g for 3 min. 50 uL of supernatant is taken and 100 uL of a luciferase detection reagent is added. After mixing, chemiluminescence is immediately detected on the multi-functional microplate reader. Graphpad Prism software is used to draw a curve by using the drug concentration as an abscissa and using drug fluorescence value/positive control fluorescence value as an ordinate. Herein MDV3100 is the positive control.

[2] = system: AR protein in MDA-MB-453 TNBC cells; test: AR protein Western blot in MDA-MB-453 cells; assay type: cell-based; details: 48 h, FIG. 8
Description: MDA-MB-453 cells treated with Zeta55 or Tubastatin A at indicated concentrations for 48 h were harvested and lysed in ice-cold RIPA buffer with protease inhibitor Cocktail. After quantification by BCA, protein (30-50 μg) were separated with 10% SDS-PAGE gels and transferred onto polyvinylidene difluoride (PVDF) membranes. The following antibodies were used in this study: AR(CST,1:1000),α-tubulin(CST,1:1000), Ac-α-tubulin(CST,1:1000). Secondary antibodies: HRP-conjugated anti-mouse IgG and anti-rabbit IgG (Proteintech, 1:5000).

SMILES: N#Cc1ccc(N2C(=O)C3(CCC3)N(c3ccc(C(=O)NO)c(F)c3)C2=S)cc1C(F)(F)F [Zeta 55, 4-(7-(4-cyano-3-(trifluoromethyl)phenyl)-8-oxo-6-thio-5,7-diazaspiro[3.4]octane-5-yl)-2-fluoro-N-hydroxybenzamide]
- cytotoxicity toward AR-negative cells [1]: may have low cytotoxicity toward AR-negative cells
- proliferation inhibition effect on AR-positive VCaP cells relative to AR-negative cells (293T and DU145) (AR-positive VCaP cells): more than 20 times
- selectivity of proliferation inhibition (AR-positive VCaP cells): selective proliferation inhibition on the AR-positive VCaP cells
- antagonist effect on the AR, antagonistic ability from high to low (androgen receptor (AR)): Zeta32>Zeta55>Zeta34>Zeta57>Zeta33
- reduction of AR protein [2]: significant dose-dependent reduction of AR protein
